In US9051317B2, “Azaindoles as respiratory syncytial virus antiviral agents” (JANSSEN SCIENCES IRELAND UC, priority 2010, dated 2015):
Like-named read-outs stand apart in the source and are kept apart here.

Experiments:
[1] = Cytotoxicity in HeLa cells, ATP content (ATPlite kit); assay type: cell-based; conditions: human, Table 1, three days incubation, read-out: Toxicity CC50
Experimental: (§1) Black 96-well clear-bottom microtiter plates (Corning, Amsterdam, The Netherlands) were filled in duplicate using a customized robot system with serial 4-fold dilutions of compound in a final volume of 50 μl culture medium [RPMI medium without phenol red, 10% FBS, 0.04% gentamycin (50 mg/mL) and 0.5% DMSO]. Then, 100 μl of a HeLa cell suspension (5×10^4 cells/mL) in culture medium was added to each well followed by the addition of 50 μl rgRSV224 (MOI=0.02) virus in culture medium using a multidrop dispenser (Thermo Scientific, Erembodegem, Belgium). rgRSV224 virus is an engineered virus that includes an additional GFP gene (Hallak et al, 2000) and was in-licensed from the NIH (Bethesda, Md., USA). Medium, virus- and mock-infected controls were included in each test. Cells were incubated at 37° C. in a 5% CO2 atmosphere. Three days post-virus exposure, viral replication was quantified by measuring GFP expression in the cells by a MSM laser microscope (Tibotec, Beerse, Belgium). The EC50 was defined as the 50% inhibitory concentration for GFP expression. In parallel, compounds were incubated for three days in a set of white 96-well microtitier plates (Corning) and the cytotoxicity of compounds in HeLa cells was determined by measuring the ATP content of the cells using the ATPlite kit (PerkinElmer, Zaventem, Belgium) according to the manufacturer's instructions. The CC50 was defined as the 50% concentration for cytotoxicity.

rgRSV224 virus = experiment: microbe, parasite or virus in culture; assay type: cell-based, respiratory syncytial virus (RSV); conditions: for EC50: read-out: WT activity EC50; for SI CC50/EC50: selectivity index, CC50 (HeLa cytotoxicity) / EC50 (rgRSV224)
Experimental: as §1

[2] = human respiratory syncytial virus, HeLa, 72 h
[3] = Table 2, rgRSV224 in HeLa cells, MOI 0.02, three days post-virus exposure, GFP expression

SMILES	CC50 at 3 days [1] [nM]	EC50 (rgRSV224 virus; [2]) [nM]	SI CC50/EC50 (rgRSV224 virus; Table 2)	EC50 (rgRSV224 virus; [3]) [nM]	SI CC50/EC50 (rgRSV224 virus; Table 3)
O=c1n(Cc2cc3cnccc3n2CCCCO)c2cnccc2n1C1CC1 [Compound P1, 1-Cyclopropyl-3-{[1-(4-hydroxybutyl)-1H-pyrrolo[3,2-c]pyridin-2-yl]methyl}-1,3-dihydro-2H-imidazo[4,5-c]pyridin-2-one]	> 98400	1.05	–	–	–
O=c1n(Cc2cc3nc(Cl)ccc3n2CCCCO)c2cnccc2n1C1CC1 [Compound P2, 3-{[5-Chloro-1-(4-hydroxybutyl)-1H-pyrrolo[3,2-b]pyridin-2-yl]methyl}-1-cyclopropyl-1,3-dihydro-2H-imidazo[4,5-c]pyridin-2-one]	> 9840	15.6	–	–	–
CC(C)CCn1c(Cn2c(=O)n(C3CC3)c3ccncc32)cc2ncccc21 [Compound P3, 1-Cyclopropyl-3-{[1-(3-methylbutyl)-1H-pyrrolo[3,2-b]pyridin-2-yl]methyl}-1,3-dihydro-2H-imidazo[4,5-c]pyridin-2-one]	68000	62.9	–	–	–
O=c1n(Cc2cc3ccncc3n2CCCCO)c2cnccc2n1C1CC1 [Compound P4, 1-Cyclopropyl-3-{[1-(4-hydroxybutyl)-1H-pyrrolo[2,3-c]pyridin-2-yl]methyl}-1,3-dihydro-2H-imidazo[4,5-c]pyridin-2-one]	> 9840	129	–	–	–
O=c1n(Cc2cc3ncccc3n2CCCCO)c2cnccc2n1C1CC1 [Compound P5, 1-Cyclopropyl-3-{[1-(4-hydroxybutyl)-1H-pyrrolo[3,2-b]pyridin-2-yl]methyl}-1,3-dihydro-2H-imidazo[4,5-c]pyridin-2-one]	> 98400	160	–	–	–
COc1ccc2c(cc(Cn3c(=O)n(C4CC4)c4ccncc43)n2CCCCO)n1 [Compound P6, 1-Cyclopropyl-3-{[1-(4-hydroxybutyl)-5-methoxy-1H-pyrrolo[3,2-b]pyridin-2-yl]methyl}-1,3-dihydro-2H-imidazo[4,5-c]pyridin-2-one]	> 9840	220	–	–	–
O=c1n(Cc2cc3nc(O)ccc3n2CCCCO)c2cnccc2n1C1CC1 [Compound P8, 1-Cyclopropyl-3-{[5-hydroxy-1-(4-hydroxybutyl)-1H-pyrrolo[3,2-b]pyridin-2-yl]methyl}-1,3-dihydro-2H-imidazo[4,5-c]pyridin-2-one]	> 9840	8460	–	–	–
CC(C)(C)C(=O)OCCCCn1c(Cn2c(=O)n(C3CC3)c3ccncc32)cc2nc(O)ccc21 [Compound P9, 4-{2-[(1-Cyclopropyl-2-oxo-1,2-dihydro-3H-imidazo[4,5-c]pyridin-3-yl)methyl]-5-hydroxy-1H-pyrrolo[3,2-b]pyridin-1-yl}butyl 2,2-dimethylpropanoate]	> 9840	> 9840	–	–	–
O=c1n(Cc2cc3cc(Cl)ncc3n2CCCCF)c2cnccc2n1C1CC1 [Compound P11, 3-((5-chloro-1-(4-fluorobutyl)-1H-pyrrolo[2,3-c]pyridin-2-yl)methyl)-1-cyclopropyl-1H-imidazo[4,5-c]pyridin-2(3H)-one]	–	5.33	>9387	–	–
O=c1n(Cc2cc3cc(Cl)ncc3n2CCCC(F)(F)F)c2cnccc2n1C1CC1 [Compound P12]	–	–	>10526	2.38	–
O=c1n(Cc2cc3cc(Cl)ncc3n2CCCC(F)(F)F)c2cnccc2n1CC(F)(F)F [Compound P13]	–	–	>106591	0.938	–
O=c1n(Cc2cc3cc(Cl)ncc3n2CCCC(F)(F)F)c2cc(F)ccc2n1CC(F)(F)F [Compound P14]	–	–	>5823	17.2	–
O=c1n(Cc2cc3cc(Cl)ncc3n2CCCCF)c2cnccc2n1CC(F)(F)F [Compound P15]	–	–	51626	1.58	–
O=c1n(Cc2cc3cc(Cl)ncc3n2CCCC(F)(F)F)c2cc(F)ccc2n1C1CC1 [Compound P16]	–	–	>2730	39.8	–
CS(=O)(=O)CCCn1c(Cn2c(=O)n(C3CC3)c3ccncc32)cc2cnccc21 [Compound P18]	–	–	>102089	0.98	–
O=c1n(Cc2cc3cnccc3n2CCCCF)c2cnccc2n1C1CC1 [Compound P19]	–	–	>186574	0.536	–
CC(C)CCn1c(Cn2c(=O)n(C3CC3)c3ccncc32)cc2cnccc21 [Compound P20]	–	–	294002	0.28	–
O=c1n(Cc2cc3cnccc3n2CCCC(F)(F)F)c2cnccc2n1C1CC1 [Compound P21]	–	–	>405210	0.247	–
O=c1n(Cc2c(Cl)c3cnccc3n2CCCC(F)(F)F)c2cnccc2n1C1CC1 [Compound P22]	–	–	>20007	5	–
O=c1n(Cc2c(F)c3cnccc3n2CCCC(F)(F)F)c2cnccc2n1C1CC1 [Compound P23]	–	–	>3416	29.3	–
O=c1n(Cc2cc3cnccc3n2CCCC(F)(F)F)c2c(F)nccc2n1C1CC1 [Compound P24]	–	0.17	–	–	>589061
Cc1c(Cn2c(=O)n(C3CC3)c3ccncc32)n(CCCC(F)(F)F)c2ccncc12 [Compound P25]	–	–	>73885	1.35	–

SMILES	CC50 at 3 days [1] [nM]	EC50 (rgRSV224 virus; [2]) [nM]	SI CC50/EC50 (rgRSV224 virus; Table 2)	EC50 (rgRSV224 virus; [3]) [nM]	SI CC50/EC50 (rgRSV224 virus; Table 3)
O=c1n(Cc2c(I)c3cnccc3n2CCCC(F)(F)F)c2cnccc2n1C1CC1 [Compound P26]	–	–	21638	2.35	–
CS(=O)(=O)CCCn1c(Cn2c(=O)n(CC(F)(F)F)c3ccc(F)cc32)c(Br)c2cnccc21 [Compound P29]	–	–	307	63.5	–
CS(=O)(=O)CCCn1c(Cn2c(=O)n(CC(F)(F)F)c3ccc(F)cc32)cc2cnccc21 [Compound P30]	–	–	>162986	0.614	–
CC(C)CCn1c(Cn2c(=O)n(C3CC3)c3ccncc32)cc2nc(Cl)ccc21 [Compound P32]	–	–	>1286	7.77	–
CS(=O)(=O)CCCn1c(Cn2c(=O)n(C3CC3)c3ccncc32)cc2nc(Cl)ccc21 [Compound P33]	–	–	>17372	5.76	–
CC(C)CCn1c(Cn2c(=O)n(C3COC3)c3ccncc32)cc2nc(Cl)ccc21 [Compound P34]	–	–	>2856	35	–
CS(=O)(=O)CCCn1c(Cn2c(=O)n(C3COC3)c3ccncc32)cc2nc(Cl)ccc21 [Compound P36]	–	–	>14674	6.81	–
CS(=O)(=O)CCCn1c(Cn2c(=O)n(C3CC3)c3ccc(F)cc32)cc2nc(Cl)ccc21 [Compound P37]	–	–	>4479	22.3	–
CC(C)CCn1c(Cn2c(=O)n(C3CC3)c3ccc(F)cc32)cc2nc(Cl)ccc21 [Compound P38]	–	–	1510	32.8	–
CC(C)CCn1c(Cn2c(=O)n(C3CC3)c3ccccc32)cc2nc(Cl)ccc21 [Compound P39]	–	–	>388	129	–
O=c1n(Cc2cc3nc(Cl)ccc3n2CCCC(F)(F)F)c2cnccc2n1C1CC1 [Compound P40]	–	–	>37045	2.7	–
O=c1n(Cc2cc3nc(Cl)ccc3n2CCCCF)c2cnccc2n1C1CC1 [Compound P42, 3-((5-chloro-1-(4-fluorobutyl)-1H-pyrrolo[3,2-b]pyridin-2-yl)methyl)-1-cyclopropyl-1H-imidazo[4,5-c]pyridin-2(3H)-one]	–	2.84	17031	–	–
O=c1n(Cc2cc3nc(Cl)ccc3n2CCCC(F)(F)F)c2ccccc2n1C1CC1 [Compound P43]	–	–	1291	69.2	–
O=c1n(Cc2cc3nc(Cl)ccc3n2CCCCF)c2cnc(Cl)cc2n1C1CC1 [Compound P44]	–	17.9	–	–	620
O=c1n(Cc2cc3ncccc3n2CCCCF)c2cnccc2n1C1CC1 [Compound P45]	–	–	>2332	42.9	–
O=c1n(Cc2cc3nc(C(F)(F)F)ccc3n2CCCCF)c2cnccc2n1C1CC1 [Compound P46]	–	–	>755	132	–
O=c1n(Cc2cc3nc(Cl)ccc3n2CCCCF)c2cc(F)ccc2n1CC(F)(F)F [Compound P47]	–	–	>720	138	–
O=c1n(Cc2cc3nc(Cl)ccc3n2CCCCF)c2cnccc2n1CC(F)(F)F [Compound P48]	–	–	10490	7.36	–
O=c1n(Cc2cc3nc(Cl)ccc3n2CCCC(F)(F)F)c2cnccc2n1CC(F)(F)F [Compound P49]	–	–	>34306	2.1	–
O=c1n(Cc2cc3nc(Cl)ccc3n2CCCCO)c2cnccc2n1CC(F)(F)F [Compound P50]	–	–	>4946	10.1	–
CS(=O)(=O)CCCn1c(Cn2c(=O)n(CC(F)(F)F)c3ccncc32)cc2nc(Cl)ccc21 [Compound P52]	–	–	>119028	0.84	–
N#CCCCn1c(Cn2c(=O)n(C3CC3)c3ccncc32)cc2nc(Cl)ccc21 [Compound P53]	–	–	>6232	15.8	–
